Laboratory results as given in PubChem BioAssay (NCI).
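Test compounds were applied to cells in 96-well plates for 48 hours at 5 doses. At the TGI there is no net growth.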

Columns and labels:
Test in all cases: growth of human tumour cells (NCI), 48 h
CCRF-CEM leukemia = test system: CCRF-CEM leukemia
SF-268 CNS = test system: SF-268 CNS
SK-MEL-28 melanoma = test system: SK-MEL-28 melanoma
HOP-62 NSCLC = test system: HOP-62 NSCLC
DMS 114 small cell lung = test system: DMS 114 small cell lung
A549 NSCLC = test system: A549 NSCLC
OVCAR-8 ovarian = test system: OVCAR-8 ovarian
HCT-116 colon = test system: HCT-116 colon
UACC-257 melanoma = test system: UACC-257 melanoma
IGROV1 ovarian = test system: IGROV1 ovarian
SK-MEL-5 melanoma = test system: SK-MEL-5 melanoma
RXF 393 renal = test system: RXF 393 renal
ACHN renal = test system: ACHN renal
SR leukemia = test system: SR leukemia
M14 melanoma = test system: M14 melanoma
KM20L2 colon = test system: KM20L2 colon
MALME-3M melanoma = test system: MALME-3M melanoma
COLO 205 colon = test system: COLO 205 colon
SN12C renal = test system: SN12C renal
M19-MEL melanoma = test system: M19-MEL melanoma
A498 renal = test system: A498 renal
K-562 leukemia = test system: K-562 leukemia
UO-31 renal = test system: UO-31 renal
KM12 colon = test system: KM12 colon
NCI-H460 lung = test system: NCI-H460 lung
MOLT-4 leukemia = test system: MOLT-4 leukemia
786-0 renal = test system: 786-0 renal
SK-MEL-2 melanoma = test system: SK-MEL-2 melanoma
NCI-H23 lung = test system: NCI-H23 lung
TK-10 renal = test system: TK-10 renal
SK-OV-3 ovarian = test system: SK-OV-3 ovarian
DLD-1 colon = test system: DLD-1 colon
CAKI-1 renal = test system: CAKI-1 renal
SNB-19 CNS = test system: SNB-19 CNS
EKVX NSCLC = test system: EKVX NSCLC
OVCAR-3 ovarian = test system: OVCAR-3 ovarian
SW-620 colon = test system: SW-620 colon
UACC-62 melanoma = test system: UACC-62 melanoma
NCI-H522 lung = test system: NCI-H522 lung
OVCAR-4 ovarian = test system: OVCAR-4 ovarian
HOP-92 NSCLC = test system: HOP-92 NSCLC
SF-539 CNS = test system: SF-539 CNS
HCC-2998 colon = test system: HCC-2998 colon
OVCAR-5 ovarian = test system: OVCAR-5 ovarian
HL-60(TB) leukemia = test system: HL-60(TB) leukemia
HT29 colon = test system: HT29 colon
RPMI-8226 leukemia = test system: RPMI-8226 leukemia
SF-295 CNS = test system: SF-295 CNS

Measured: TGI

O=C(C/C(=N\NC(=O)C[n+]1ccccc1)C(=O)Nc1nc2ccc([N+](=O)[O-])cc2s1)CC(c1ccccc1)c1c(O)c2ccccc2oc1=O (stereo not drawn)
> 100 µM: all assays above
